Data taken from patent EP2790511B1 (Merck Sharp & Dohme Corp., priority 2011, dated 2013).

Each compound was assayed against T1, hROMK (hKir1.1) (Homo sapiens, UniProt P48048) (assay: Thallium Flux Assay). Settings: HEK293 cells stably expressing hROMK (hKir1.1), FLIPR-Tetra; read-out: Thallium Flux IC50.
T1 construct: expressed in transfected cells
T1 sequence (P48048 1-391): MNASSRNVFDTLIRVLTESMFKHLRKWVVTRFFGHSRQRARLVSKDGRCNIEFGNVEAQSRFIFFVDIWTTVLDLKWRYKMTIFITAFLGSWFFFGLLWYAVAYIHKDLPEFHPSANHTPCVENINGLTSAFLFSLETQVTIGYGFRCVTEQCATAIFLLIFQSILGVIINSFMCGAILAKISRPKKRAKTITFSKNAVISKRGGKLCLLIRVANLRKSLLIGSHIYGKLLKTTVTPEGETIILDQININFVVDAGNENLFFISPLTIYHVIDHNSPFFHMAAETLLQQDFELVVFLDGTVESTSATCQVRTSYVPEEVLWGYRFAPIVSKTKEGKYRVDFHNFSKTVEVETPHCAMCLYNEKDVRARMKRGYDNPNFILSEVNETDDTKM
Type: cell-based
Method: Cell Culture Conditions- HEK293 cells stably expressing hROMK (hKir1.1) were grown at 37°C in a 10%CO2 humidified incubator in complete growth media: Dulbecco's Modified Eagle Medium supplemented with non-essential amino acids, Penicillin/Streptomycin/Glutamine, G418 and FBS. At >80% confluency, aspirate the media from the flask and rinse with 10 mL Calcium/Magnesium-free PBS. […] To dislodge the cell, gently bang the side of the flask with your hand. Triturate the cells completely and then transfer the cells to 25 mL complete media. Centrifuge at 1,500 rpm for 6 min followed by resuspension in complete growth media and determine cell concentration. […] Under ideal growth conditions and appropriate tissue culture practices, this cell line is stable for 40-45 passages.
• FluxOR™ Reagent (Component A) • FluxOR™ Assay Buffer (Component B) - 10X Concentrate • PowerLoad™ Concentrate (Component C) - 100X Concentrate • Probenecid (Component D) - Lyophilized sample is kept at -20°C. Water soluble, 100X after solubilization in 1 mL water. […] Store at 4°C. • Thallium sulfate (Tl2SO4) Concentrate (Component G) - 50 mM in water. Store at 4°C • DMSO (dimethyl sulfoxide, Component H) - 1 mL (100%)
• 1000X FluxOR™ Reagent: Reconstitute a vial of component A in 100 µl DMSO; Mix well; Store 10 µl aliquots at -20°C • 1X FluxOR™ Assay Buffer: Dilute Component B 10-fold with water; Adjust pH to 7.4 with Hepes/NaOH; Filter and store at 4°C • Probenecid/Assay Buffer: 100 mL of 1X FluxOR™ Assay Buffer; 1 mL of reconstituted component D; Store at 4°C • Loading Buffer (per microplate): 10 µl 1000X FluxOR™ Reagent; 100 µl component C; 10 mL Probenecid/Assay Buffer • Compound Buffer (per microplate): 20 mL Probenecid/Assay Buffer; 0.3 mM ouabain (10 mM ouabain in water can be stored in amber bottle/aluminum foil at room temperature); Test compound • 1X FluxOR™Chloride-Free Buffer: Prepare 1X working solution in water. Can be stored at room temperature • Stimulant Buffer (prepared at 5X final concentration in 1X FluxOR™Chloride-Free Buffer): 7.5 mM Thallium sulfate and 0.75 mM Potassium sulfate (to give a final assay concentration of 3 mM Thallium/ 0.3 mM Potassium). Store at 4°C when not in use. If kept sterile, this solution is good for months.
Assay protocol- The ROMK channel functional thallium flux assay is performed in 384 wells, using the FLIPR-Tetra instrument. HEK-hKir1.1 cells are seeded in Poly-D-Lysine microplates and kept in a 37°C-10%CO2 incubator overnight. On the day of the experiment, the growth media is replaced with the FluxOR™ reagent loading buffer and incubated, protected from light, at ambient temperature (23-25°C) for 90 min. The loading buffer is replaced with assay buffer ± test compound followed by 30 min incubation at ambient temperature, where the Thallium/Potassium stimulant is added to the microplate.
• 1. Seed HEK-hKir1.1 cells (50 µl at 20,000 cells/well) in 384-well PDL coated Microplates • 2. Allow cells to adhere overnight in humidified 37°C/10%CO2 incubator • 3. Completely remove cell growth media from microplate and replace with 25 µl loading buffer • 4. Incubate Microplate at room temperature, protected form light, for 90 min • 5. Remove loading buffer and replace with 25 µl 1x Assay Buffer ± test compound. • 6. Incubate microplate at room temperature, protected form light, for 30 min • 7. […] Excitation = 400 nm, Emission = 460 & 580 nm. Collect data for ∼ 10 min.
Data Calculation- The fluorescence intensity of wells containing 3 µM of a standard control ROMK inhibitor of the present invention is used to define the ROMK-sensitive component of thallium flux. Fluorescence in the presence of test compounds is normalized to control values to provide % fluorescence change.
`Cc1c(C2CN3CCN(C(=O)Cc4cnc(-n5cnnn5)nc4)CC3CCO2)ccc2c1COC2=O` (single isomer, unassigned) [Example 165, 4-methyl-5-(2-{[2-(1H-tetrazol-1-yl)pyrimidin-5-yl]acetyl}octahydro-2H-pyrazino[1,2-d][1,4]oxazepin-7-yl)-2-benzofuran-1(3H)-one] gave an IC50 of 210 nM.
`Cc1c([C@H]2CN3CCN(C(=O)Cc4ccc(-n5cnnn5)nc4)C[C@H]3CCO2)ccc(F)c1C#N` (single isomer, unassigned) [Example 169] gave an IC50 of 180 nM.
For `Cc1c([C@@H]2CN3CCN(C(=O)Cc4ccc(-n5cnnn5)nc4)C[C@H]3CCO2)ccc(F)c1C#N` (single isomer, unassigned) [Example 171], the IC50 was 270 nM.
`N#Cc1c(F)ccc([C@H]2CN3CCN(C(=O)Cc4ccc(-n5cnnn5)nc4)C[C@H]3CO2)c1Cl` [Example 10, 2-chloro-6-fluoro-3-[(3S,9aS)-8-{[6-(1H-tetrazol-1-yl)pvridin-3-yl]acetyl}octahydropyrazino[2,1-c][1,4]oxazin-3-yl]benzonitrile] showed an IC50 of 70 nM.
For `N#Cc1c(F)ccc([C@H]2CN3CCN(C(=O)Cc4ccc(-n5cnnn5)nc4)C[C@H]3CO2)c1F` [Example 12, 2,6-difluoro-3-[(3S,9aS)-8-{[6-(1H-tetrazol-1-yl)pyridin-3-yl]acetyl}octahydropyrazino[2,1-c][1,4]oxazin-3-yl]benzonitrile], the IC50 was 120 nM.
`Cc1c([C@H]2CN3CCN(C(=O)Cc4cnc(-n5cnnn5)nc4)C[C@H]3CO2)ccc2c1COC2=O` [Example 15, 4-methyl-5-[(3S,9aS)-8-{[2-(1H-tetrazol-1-yl)pyrimidin-5-yl]acetyl}octahydropyrazino[2,1-c][1,4]oxazin-3-yl]benzofuran-1(3H)-one] gave an IC50 of 140 nM.
With `Cc1c([C@@H]2CN3CCN(C(=O)Cc4cnc(-n5cnnn5)nc4)C[C@H]3CO2)ccc2c1COC2=O` [Example 16] the IC50 was 480 nM.
In the case of `Cc1c(C#N)cccc1[C@@H]1CN2CCN(C(=O)Cc3cnc(-n4cnnn4)nc3)C[C@H]2CO1` [Example 17, 2-methyl-3-[(3R,9aS)-8-{[2-(1H-tetrazol-1-yl)pyrimidin-5-yl]acetyl}octahydropyrazino[2,1-c][1,4]oxazin-3-yl]benzonitrile], the IC50 is reported as 160 nM.
`Cc1c(C#N)cccc1[C@H]1CN2CCN(C(=O)Cc3cnc(-n4cnnn4)nc3)C[C@H]2CO1` [Example 18, 2-methyl-3-[(3S,9aS)-8-{[2-(1H-tetrazol-1-yl)pyrimidin-5-yl]acetyl}octahydropyrazino[2,1-c][1,4]oxazin-3-yl]benzonitrile] gave an IC50 of 320 nM.

Same assay, conditions: Thallium Flux IC50
`Cc1c(C2CN3CCN(C(=O)Cc4ccc(-n5cnnn5)nc4)CC3CCO2)ccc2c1COC2=O` (single isomer, unassigned) [Example 163, 4-methyl-5-(2-{[6-(1H-tetrazol-1-yl)pyridin-3-yl]acetyl}octahydro-2H-pyrazino[1,2-d][1,4]oxazepin-7-yl)-2-benzofuran-1(3H)-one] was tested, and the IC50 was 210 nM.
Compound `Cc1c(C2CN3CCN(C(=O)Cc4ccc(-n5cnnn5)nc4)CC3CCO2)ccc2c1COC2=O` (single isomer, unassigned) [Example 164, 4-methyl-5-(2-{(6-(1H-tetrazol-1-yl)pyridin-3-yl]acetyl}octahydro-2H-pyrazino[1,2-d][1,4]oxazepin-7-yl)-2-benzofuran-1(3H)-one] has an IC50 of 650 nM.
`Cc1c([C@@H]2CN3CCN(C(=O)Cc4ccc(-n5cnnn5)nc4)C[C@@H]3CCO2)ccc(F)c1C#N` (single isomer, unassigned) [Example 170] gave an IC50 of 240 nM.
In the case of `Cc1c([C@H]2CN3CCN(C(=O)Cc4cnc(-n5cnnn5)nc4)C[C@H]3CCO2)ccc(F)c1C#N` (single isomer, unassigned) [Example 172], the IC50 is reported as 220 nM.
In the case of `Cc1c([C@@H]2CN3CCN(C(=O)Cc4ccc(-n5cnnn5)nc4)C[C@H]3CO2)ccc(F)c1C#N` [Example 5, 6-fluoro-2-methyl-3-[(3R,9aS)-8-{[6-(1H-tetrazol-1-yl)pyridin-3-yl]acetyl}octahydropyrazino[2,1-c][1,4]oxazin-3-yl]benzonitrile], the IC50 is reported as 50 nM.
With `Cc1c([C@H]2CN3CCN(C(=O)Cc4cnc(-n5cnnn5)nc4)C[C@@H]3CO2)ccc(F)c1C#N` [Example 9, 6-fluoro-2-methyl-3-[(3S,9aR)-8-{[2-(1H-tetrazol-1-yl)pyrimidin-5-yl]acetyl}octahydropyrazino[2,1-c][1,4]oxazin-3-yl]benzonitrile] the IC50 was 180 nM.
`N#Cc1c(F)ccc([C@@H]2CN3CCN(C(=O)Cc4ccc(-n5cnnn5)nc4)C[C@H]3CO2)c1F` [Example 11, 2,6-difluoro-3-[(3R,9aS)-8{[6-(1H-tetrazol-1-yl)pyridin-3-yl]acetyl}octahydropyrazino[2,1-c][1,4]oxazin-3-yl]benzonitrile] was tested, and the IC50 was 90 nM.
`Cc1c([C@@H]2CN3CCN(C(=O)Cc4cnc(-n5cnnn5)nc4)C[C@H]3CO2)ccc(F)c1C#N` [Example 14] showed an IC50 of 80 nM.
`C[C@@H]1Cc2cc([C@@H]3CN4CCN(C(=O)Cc5cnc(-n6cnnn6)nc5)C[C@H]4CO3)ccc2C(=O)O1` [Example 19] was tested, and the IC50 was 160 nM.
With `C[C@H]1Cc2cc([C@@H]3CN4CCN(C(=O)Cc5cnc(-n6cnnn6)nc5)C[C@H]4CO3)ccc2C(=O)O1` [Example 20, (3S)-3-methyl-6-[(3R,9aS)-8-{[2-(1H-tetrazol-1-yl)pyrimidin-5-yl]acetyl}octahydropyrazino[2,1-c][1,4]oxazin-3-yl]-3,4-dihydro-1H-isochromen-1-one] the IC50 was 170 nM.
`Cc1c([C@H]2CN3CCN(C(=O)Cc4ccc(-n5cnnn5)nc4)C[C@H]3CO2)ccc2c1COC2=O` [Example 21, 4-methyl-5-[(3S,9aS)-8-{[6-(1H-tetrazol-1-yl)pyridin-3-yl]acetyl}octahydropyrazino[2,1-c][1,4]oxazin-3-yl]-2-benzofuran-1(3H)-one] was tested, and the IC50 was 100 nM.
`Cc1c([C@@H]2CN3CCN(C(=O)Cc4ccc(-n5cnnn5)nc4)C[C@H]3CO2)ccc2c1COC2=O` [Example 22, 4-methyl-5-[(3R,9a,S)-8-{[6-(1H-tetrazol-1-yl)pyridin-3-yl]acetyl}octahydropyrazino[2,1-c][1,4]oxazin-3-y]-2-benzofuran-1(3H)-one] was tested, and the IC50 was 160 nM.
`Cc1c([C@@H]2CN3CCN(C(=O)Cc4ccc(-n5cnnn5)nc4)C[C@@H]3CO2)ccc2c1COC2=O` [Example 23] was tested, and the IC50 was 70 nM.

Same assay, conditions: read-out: Thallium Flux IC50
For “2,6-difluoro-3-[3R,9aS)-8-{[2-methyl-6-(1H-tetrazol-1-vl)pvridin-3-yl]acetyl}octahydropyrazino[2,1-c][1,4]oxazin-3-yl]benzonitrile [Example 89]”, the IC50 was 70 nM.
`O=C1OCCc2cc([C@@H]3CN4CCN(C(=O)Cc5ccc(-n6cnnn6)nc5)C[C@H]4CO3)ccc21` [Example 1] was tested, and the IC50 was 80 nM.
